PMC9490236, “Accurate de novo design of membrane-traversing macrocycles” (Cell, 2022)
Where a SMILES comes first, the peptide text is derived from it. [ ]: non-standard residue; d: D form. NMeF = CN[C@@H](Cc1ccccc1)C(=O)O; dNMeL = CN[C@H](CC(C)C)C(=O)O; NMeV = CN[C@H](C(=O)O)C(C)C; NMeA = CN[C@@H](C)C(=O)O; dNMeA = CN[C@H](C)C(=O)O

Tests used:
[1] = PAMPA
in vitro = settings: PAMPA, PAMPA_Papp_Avg

SMILES	PAMPA_R1 [1]	PAMPA_R3 [1]	Papp (in vitro) [nm/s]
CC(C)C[C@@H]1C(=O)N(C)[C@H](C)C(=O)N(C)[C@@H](C(C)C)C(=O)N2CCC[C@@H]2C(=O)N[C@H](C)C(=O)N[C@@H](Cc2ccccc2)C(=O)N2CCC[C@@H]2C(=O)N2CCC[C@H]2C(=O)N[C@H](C(C)C)C(=O)N[C@@H](C(C)C)C(=O)N1C [Design D10.29, PHE DPRO PRO DVAL VAL *DLEU *DALA *VAL DPRO DALA] (cyclo([dV]V[dNMeL][dNMeA][NMeV][dP][dA]F[dP]P))	3.87E-07	4.67E-07	4.41
CC(C)C[C@@H]1C(=O)N[C@H](CC(C)C)C(=O)N2CCC[C@@H]2C(=O)N2CCC[C@H]2C(=O)N(C)[C@H](CC(C)C)C(=O)N[C@H](CC(C)C)C(=O)N2CCC[C@@H]2C(=O)N2CCC[C@H]2C(=O)N1C [Design D8.4, DPRO PRO *DLEU DLEU DPRO PRO *DLEU DLEU] (cyclo([dNMeL][dL][dP]P[dNMeL][dL][dP]P))	1.49E-07	1.12E-07	1.36
CC[C@@H](C)[C@H]1NC(=O)[C@@H](Cc2ccccc2)NC(=O)[C@H](CC(C)C)NC(=O)[C@@H](C)N(C)C(=O)[C@@H](CC(C)C)NC(=O)[C@H](CC(C)C)NC(=O)[C@H]2CCCN2C(=O)[C@@H]2CCCN2C(=O)[C@@H](C)NC(=O)[C@H]2CCCN2C1=O [Design D10.37, DLEU *DALA LEU DPHE DILE DPRO DALA PRO DPRO LEU] (cyclo(L[dF][dI][dP][dA]P[dP]L[dL][dNMeA]))	7.62E-07	6.36E-07	6.54
CC(C)C[C@@H]1NC(=O)[C@H](Cc2ccccc2)N(C)C(=O)[C@H]2CCCN2C(=O)[C@@H](CC(C)C)NC(=O)[C@@H](CC(C)C)NC(=O)[C@H](C)NC(=O)[C@H]2CCCN2C(=O)[C@@H]2CCCN2C(=O)[C@@H](C(C)C)NC1=O [Design D9.32, DPRO ALA DLEU DLEU DPRO *PHE LEU DVAL PRO] (cyclo(A[dL][dL][dP][NMeF]L[dV]P[dP]))	2.62E-07	2.67E-07	2.4
CC[C@H](C)[C@@H]1NC(=O)[C@H](Cc2ccccc2)NC(=O)[C@H]2CCCN2C(=O)[C@H]([C@@H](C)CC)NC(=O)[C@H](C(C)C)NC(=O)[C@@H](C)NC(=O)[C@H]2CCCN2C1=O (single isomer, unassigned) [Design D7.8.p1, VAL ILE DPRO PHE ILE DPRO DALA]	4.5e-06 cm/s	6.04e-06 cm/s	48.7
CC(C)[C@@H]1C(=O)N[C@@H](Cc2ccccc2)C(=O)N2CCC[C@H]2C(=O)N(C)[C@H](Cc2ccccc2)C(=O)N[C@H](C)C(=O)N2CCC[C@H]2C(=O)N1C (single isomer, unassigned) [Design D6.8.p1, *DPHE DALA PRO *DVAL PHE PRO]	4.07e-06 cm/s	3.58e-06 cm/s	34.7
CC(C)C[C@@H]1C(=O)N[C@H](Cc2ccccc2)C(=O)N2CCC[C@@H]2C(=O)N2CCC[C@@H]2C(=O)N2CCC[C@H]2C(=O)N[C@H](C(C)C)C(=O)N(C)[C@@H](C)C(=O)N(C)[C@@H](C)C(=O)N(C)[C@H](CC(C)C)C(=O)N1C [Design D9.25, DVAL *ALA *ALA *DLEU *DLEU DPHE DPRO DPRO PRO] (cyclo([dV][NMeA][NMeA][dNMeL][dNMeL][dF][dP][dP]P))	2.32E-06	1.52E-06	21.9
CC(C)C[C@H]1NC(=O)[C@@H]2CCCN2C(=O)[C@@H]2CCCN2C(=O)[C@@H](C)NC(=O)[C@@H](Cc2ccccc2)NC(=O)[C@H]2CCCN2C1=O [Design D6.3, DPRO DPHE DALA PRO PRO DLEU] (cyclo(PP[dL][dP][dF][dA]))	5.23e-06 cm/s	7.03e-07 cm/s	19.9
